Laboratory results: US20250206789A1, “ZINC FINGER DEGRON SEQUENCES” (STICHTING HET NEDERLANDS KANKER INSTITUUT-ANTONI VAN …, priority 2022, published 2025)

Each substance was assayed on Jurkat cells (assay: SynFinger library screen: CD69 expression of CRASH-IT (Zap70-PD1-degron) transduced Jurkat cells with or without lenalidomide, enrichment index from NGS reads). Settings: Table 6; dual substitutions in first hybrid zinc finger domain; Jurkat, 50 nM lenalidomide vs mock, CD69-HI/CD69-LO; low EI = desired.
Type: cell-based
Parameters: key to EI / EI index (enrichment index): enrichment index; low EI = SynFinger with desired properties
Description: […] Jurkat cells were transduced with the SynFinger library (SynFinger containing CRASH-IT switches) at a 12.8% transduction efficiency and sorted for high EGFP expression to enrich transduced cells. For quality control of the SynFinger transduced Jurkat cells, SynFinger sequences were amplified and analyzed by NGS. 10 randomly selected SynFinger encoding DNA sequences or DNA sequences encoding the same SynFinger amino acid sequences but contain 2 nucleotide mismatches due to alternative codon usage were used to assess ability to distinguish true SynFinger sequences from noise in the NGS data. 10/10 SynFinger encoding full-nucleotide sequence match sequences were observed within NGS data whereas the 2 nucleotide mismatch containing sequences were not detected.
Jurkat cells expressing the SynFinger library were treated with 50 nM lenalidomide (a suboptimal dose that activates only ˜50% of cells expressing a CRASH-IT switch containing the parental double hybrid degron in Jurkat cells, as compared to a maximally effective 1000 nM lenalidomide dose) or were mock treated for 24 hours, and subsequently activated with anti-CD3/anti-CD28 antibodies in the presence or absence of 50 nM lenalidomide for 5 hours. Afterwards, cells were stained with IR dye (1:400) and anti-CD69-PE (1:200). Cells were sorted for live (IR dye negative), EGFP high end CD69 high (top 5%) or CD69 low (bottom 5%) expression using Aria Fusion cytometers.
Subsequently, cells were washed with PBS, and cell pellets were frozen at −20° C. until DNA extraction. Genomic DNA was isolated using the DNeasy Blood & Tissue Kit (Qiagen) according to the manufacturer's instructions, using 5×10^6 cells per column. DNA was eluted in 22 μl RNAse free water. Deep sequencing adapters and indexes were added to SynFinger encoding DNA sequences using PCR amplification. Briefly, 3 μg genomic DNA (20 μl), indexed forward and reverse primers (10 μM, 2.5 μl each) and 25 μl NEBNext® High-Fidelity 2×PCR Master Mix were added to the PCR reaction. An optimized PCR reaction (98° C. for 30 s, (98° C. for 10 s, 56° C. for 10 s, 72° C. for 5 s)×25 cycles, 72° C. for 3 min was performed using Eppendorf PCR cyclers.
Indexed PCR products were run on agarose gel, relative DNA concentrations were estimated by measuring band intensity, and 12 indexed PCR reaction products were mixed per MiSeq chip. To increase sequence diversity, samples were mixed with 25% PhiX DNA. In total, 2 MiSeq chips were used (100 bp, single read). To distinguish genuine SynFinger sequences from sequencing errors, results were filtered using a reference list of actual sequences used in SynFinger library design (100% codon match). Sequences with a very low number of reads (sum of all samples below 500 reads) were excluded from analysis.
To identify SynFingers that improve sensitivity of CRASH-IT switches towards lenalidomide while preserving or improving stringency of switch mediated control of T cell activation in the absence of lenalidomide, an enrichment index (EI) value was calculated for each sequence as described below, and SynFingers were ranked according to their EI, with a low EI indicating a SynFinger with desired properties.
CD69-HI and […] read counts from top 100 SynFingers were compared with read counts from the parental double hybrid degron using a two-sided Fisher's exact test to determine enrichment of CD69-HI cells in the presence of lenalidomide and enrichment of CD69-LO cells in the absence of lenalidomide.
To further improve the sensitivity of double hybrid degron towards IMiDs, we performed a high throughput screen using a library of ˜50,200 CRASH-IT variants that encode either single or double amino acid substitutions at the indicated positions of the first hybrid zinc finger sequence, thereby changing 18 amino acids of this zinc finger into any amino acid except cysteine (FIG. 3). […]

Row | Substance | EI index (enrichment index)
1 | 1 (LQCRICGFTCRLKGNLLRHIKLH) [compound 1] | 0
2 | 2 (LQCEICGFTCRRTGNLLRHIKLH) [compound 2] | 0.002912
3 | 3 (LQCEICGFTCRRKGNLMRHIKLH) [compound 3] | 0.003725
4 | 4 (LQCEICGFTCRQKMRLLRHIKLH) [compound 4] | 0.00411
5 | 5 (LQCEICGFTCRQVKNLLRHIKLH) [compound 5] | 0.004648
6 | 6 (LQCEICGFTCRQKNNLLRHIALH) [compound 6] | 0.004719
7 | 7 (LQCEICGFTCRQKNNLLRHIKRH) [compound 7] | 0.004969
8 | 8 (LQCEICGFTCRQLGNLLWHIKLH) [compound 8] | 0.006187
9 | 9 (LQCEICGFTCRRVGNLLRHIKLH) [compound 9] | 0.006877
10 | 10 (LQCWICGFTCRQKGNLLRHIYLH) [compound 10] | 0.00695
11 | 11 (LQCPICGFTCRQKSNLLRHIKLH) [compound 11] | 0.008068
12 | 12 (IQCEACGFTCRQKGNLLRHIKLH) [compound 12] | 0.008564
13 | 13 (LQCEICGFTCRQKGNMLRHIRLH) [compound 13] | 0.008761
14 | 14 (LQCEICGFTCRQKGNLIRHILLH) [compound 14] | 0.009984
15 | 15 (LQCLICGFTCRRKGNLLRHIKLH) [compound 15] | 0.01014
16 | 16 (LQCEICGFTCRRKGNLYRHIKLH) [compound 16] | 0.0107
17 | 17 (LQCIICGFTCRQKGNLLKHIKLH) [compound 17] | 0.0108
18 | 18 (LQCAICGFTSRQKGNLLRHIKLH) [compound 18] | 0.01133
19 | 19 (LQCEICGFTCRLKGNLLRHILLH) [compound 19] | 0.01177
20 | 20 (LQCKICGFTCRVKGNLLRHIKLH) [compound 20] | 0.01216
21 | 21 (LQCEICGFSCRQKGNLRRHIKLH) [compound 21] | 0.01255
22 | 22 (LQCKICGFTSRQKGNLLRHIKLH) [compound 22] | 0.01311

Row | Substance | EI index (enrichment index)
23 | 23 (LQCEICGFTCRKKGALLRHIKLH) [compound 23] | 0.0133
24 | 24 (LQCEICGFTCRQKHNLLRHIKNH) [compound 24] | 0.01351
25 | 25 (LQCKICGFTCRQMGNLLRHIKLH) [compound 25] | 0.01383
26 | 26 (FQCEICGFTCRQKVNLLRHIKLH) [compound 26] | 0.01478
27 | 27 (LQCEICGFTCVQKGNLLRHIALH) [compound 27] | 0.01487
28 | 28 (LQCEICGFTCRRKGNLLRHIKHH) [compound 28] | 0.01589
29 | 29 (LQCEICGFTCRQVGWLLRHIKLH) [compound 29] | 0.01609
30 | 30 (LQCMICGFTFRQKGNLLRHIKLH) [compound 30] | 0.01673
31 | 31 (LQCEICGFTCRQKTRLLRHIKLH) [compound 31] | 0.01686
32 | 32 (LQCEICGFTCRQEKNLLRHIKLH) [compound 32] | 0.01693
33 | 33 (LQCDICGFTCRQKGNLLLHIKLH) [compound 33] | 0.01705
34 | 34 (LQCEICGFTCRQKYNLLRHISLH) [compound 34] | 0.01723
35 | 35 (LQCEICGFTARRKGNLLRHIKLH) [compound 35] | 0.01754
36 | 36 (YQCVICGFTCRQKGNLLRHIKLH) [compound 36] | 0.01769
37 | 37 (FQCEICGFTCRQKHNLLRHIKLH) [compound 37] | 0.01787
38 | 38 (LQCEICGYTCRKKGNLLRHIKLH) [compound 38] | 0.01794
39 | 39 (LQCEICGFTCRQKGRLLRHIKQH) [compound 39] | 0.01901
40 | 40 (LQCEICGFTCKQKKNLLRHIKLH) [compound 40] | 0.01915
41 | 41 (LQCEVCGFTCRKKGNLLRHIKLH) [compound 41] | 0.01944
42 | 42 (LQCEICGFTCRRKGNLLRHRKLH) [compound 42] | 0.01965
43 | 43 (FQCEICGFTCRQKGRLLRHIKLH) [compound 43] | 0.01977
44 | 44 (LQCEICGFTCRQKANLKRHIKLH) [compound 44] | 0.02064

Row | Substance | EI index (enrichment index)
45 | 45 (LQCIICGFTCRQKGNLWRHIKLH) [compound 45] | 0.0209
46 | 46 (LQCEICGFTCRQKGNLYRHYKLH) [compound 46] | 0.021
47 | 47 (LQCEICGFTCRQKGTLLRHIKRH) [compound 47] | 0.02209
48 | 48 (LQCEICGFTCRKKGNLLRHKKLH) [compound 48] | 0.02219
49 | 49 (LQCEICGFTCRRKGSLLRHIKLH) [compound 49] | 0.02268
50 | 50 (LQCEICGFTCRNKKNLLRHIKLH) [compound 50] | 0.02307
51 | 51 (LQCEICGFTCRQKKNLLRHISLH) [compound 51] | 0.02309
52 | 52 (FQCEICGFTCRQKRNLLRHIKLH) [compound 52] | 0.0231
53 | 53 (LQCEICGFTCRQKGNLLRHYKTH) [compound 53] | 0.02363
54 | 54 (LQCEICGFTCRQKGNLLVHIALH) [compound 54] | 0.02408
55 | 55 (LQCEICGFTCRQKFKLLRHIKLH) [compound 55] | 0.0247
56 | 56 (LQCKICGFTCRHKGNLLRHIKLH) [compound 56] | 0.02543
57 | 57 (LQCEICGFTCRQKMNLVRHIKLH) [compound 57] | 0.02583
58 | 58 (LQCRICGFTCRQKGNMLRHIKLH) [compound 58] | 0.02584
59 | 59 (LQCEICGFTCRLKGNLLLHIKLH) [compound 59] | 0.02682
60 | 60 (LQCEICGFTCRQWGNYLRHIKLH) [compound 60] | 0.02739
61 | 61 (WQCEICGFTCRQYGNLLRHIKLH) [compound 61] | 0.0276
62 | 62 (LQCEICGFTCRQPGNLLRHIKRH) [compound 62] | 0.02767
63 | 63 (LQCWICGFTCRRKGNLLRHIKLH) [compound 63] | 0.02829
64 | 64 (LQCEICGFTCRQKGNLHLHIKLH) [compound 64] | 0.02947
65 | 65 (LQCEICGFTCRQKGNLLRHIFKH) [compound 65] | 0.02989
66 | 66 (LQCVICGFTCRQKGNLVRHIKLH) [compound 66] | 0.02989
